Measurements as given in US4916217A, “Phosphorus containing derivatives of epipodophyllotoxin” (priority 1987, dated 1990).
≈ marks a conversion by molar mass, not a printed value. Where “and” joins values, the source holds several entries; their conditions need not be identical. Equal entries are not always repeated.

Experiments:
B16-F10 murine melanoma = assay: in vitro cytotoxicity assay, B16-F10; format: cell-based; conditions: 50% inhibition of cell growth, etoposide values (in parentheses) from the same run
Procedure: (§1) The test data involves a cytotoxicity assay versus various murine and human tumors, and in vivo evaluation against P-388 leukemia and B16 melanoma in mice.
(§2) The in vitro cytotoxicity assay involved growing various mammalian tumor cells, including human tumor cells, on microtitre plates employing established tissue culture methods. The concentration of each compound required to inhibit cell growth by 50% (IC50) was then determined by a four-fold serial dilution technique. The validity of the method has been supported by a report published in the "Proceedings of the American Association for Cancer Research", Vol. 25, 328, p. 1891 (1984). Tumor cells of the following types were employed for each compound tested: B16-F10 murine melanoma; Moser human colon; M109 murine lung; and three human colon tumor cell lines namely HCT-116, HCT-VM, and HCT-VP, the latter two being resistant to teniposide (VM) and etoposide (VP). A wide range of IC50 values was observed, and quantitative comparisons amongst test compounds or against the etoposide control values were not possible.

P-388 murine leukemia = assay: P-388 murine leukemia, in vivo antitumor activity; design: species or system CDF1 female mice; Average Weight Change: unit: g; conditions: for Average Weight Change / Maximum Effect % T/C: P-388, i.p.; for effectiveness relative to etoposide (% T/C): P-388, days 5 and 8 protocol
Procedure: The test protocol involved CDF1 female mice implanted intraperitoneally with a tumor inoculum of 10^6 ascites cells of P-388 murine leukemia and treated with various doses of a test compound, or with etoposide. The compounds were administered by intraperitoneal injection on various schedules. Groups of four mice were used for each dosage schedule and amount. A group of ten saline treated control mice was included in each series of experiments, and etoposide treated groups of six were included as a positive control. Thirty one, 47, and 49 day protocols were employed with the mean survival time in days being determined for each group of mice and the number of survivors at the end of the period being noted. The mice were weighed before treatment and again on day 5 or day 6. Mice weighing 20 grams each were employed and a loss in weight of up to approximately 2 grams was not considered excessive. The results are arranged in Table II and were determined in terms of % T/C which is the ratio of the mean survival time of the treated group to the mean survival time of the saline treated control group times 100. The saline treated control animals usually died within nine days. The "maximum effect" in the table is expressed as % T/C and the dose giving that effect is reported. Two different dosage regimens were employed. In one, the first dose of test drug was given on Day 1, the day of tumor inoculation, and second was given on Day 5. In the other, the first dose of test drug was given on Day 5 and a second dose on Day 8. According to the latter protocol, the etoposide control % T/C values are lower than according to the former protocol indicating a more stringent test regimen.

[1] = tested on: HCT-116 human colon tumor cell line; assay: in vitro cytotoxicity assay, HCT-116; format: cell-based; conditions: 50% inhibition of cell growth; etoposide values (in parentheses) from the same run
Procedure: as §1, §2

Moser human colon = assay: in vitro cytotoxicity assay, Moser; format: cell-based; conditions: 50% inhibition of cell growth; etoposide values (in parentheses) from the same run
Procedure: as §1, §2

[2] = tested on: HCT-VM human colon tumor cell line; assay: in vitro cytotoxicity assay, HCT/VM (teniposide resistant); format: cell-based; conditions: 50% inhibition of cell growth; etoposide values (in parentheses) from the same run
Procedure: as §1, §2

[3] = tested on: variety of cancers including small cell lung cancer, non-lymphocytic leukemia, and nonseminomatous testicular cancer; conditions: AMA Drug Evaluations, 5th Edition, 1983; cited from earlier work
[4] = tested on: HCT-VP human colon tumor cell line; assay: in vitro cytotoxicity assay, HCT/VP (etoposide resistant); format: cell-based; conditions: 50% inhibition of cell growth; etoposide values (in parentheses) from the same run
Procedure: as §1, §2

B16 melanoma = assay: B16 melanoma, in vivo antitumor activity; design: species or system BDF1 female mice; conditions: for % T/C: B16 melanoma s.c.
M109 murine lung = assay: in vitro cytotoxicity assay, M109; format: cell-based; conditions: 50% inhibition of cell growth; etoposide values (in parentheses) from the same run
Procedure: as §1, §2

[5] = 40 mg/kg, treatment days 1 and 5
[6] = 60 mg/kg, treatment days 1 and 5
[7] = 60 mg/kg, treatment days 5 and 8
[8] = 120 mg/kg, treatment days 1 and 5
[9] = 160 mg/kg, treatment days 5 and 8
[10] = 200 mg/kg, treatment days 5 and 8

Molecule | IC50 B16-F10 (B16-F10 murine melanoma) | IC50 HCT-116 [1] | IC50 Moser (Moser human colon) | IC50 HCT/VM [2] | activity in the treatment of cancers [3] | IC50 HCT/VP [4] | Average Weight Change (P-388 murine leukemia; [8]) | Maximum Effect % T/C (P-388 murine leukemia; [8]) [% T/C] | IC50 M109 (M109 murine lung) | effectiveness relative to etoposide (% T/C) (P-388 murine leukemia) | further results
COc1cc([C@@H]2c3cc4c(cc3[C@@H](O[C@@H]3O[C@@H]5CO[C@@H](C)O[C@H]5[C@H](O)[C@H]3O)[C@H]3COC(=O)[C@H]23)OCO4)cc(OC)c1O [Etoposide, reference compound] | 1.9 µg/mL (≈ 3.23 µM) | 2.1 µg/mL and 2.7 µg/mL | 38 µg/mL and 39 µg/mL | 6.1 µg/mL and 3.1 µg/mL | active | 30 µg/mL and 41 µg/mL | – | – | – | – | IC50 B16-F10 (B16-F10 murine melanoma; listed as etoposide): 9 to 12 µg/mL; Average Weight Change (P-388 murine leukemia; [5]): -1.9; Maximum Effect % T/C (P-388 murine leukemia; [5]): > 450 % T/C; Average Weight Change (P-388 murine leukemia; [6]): -0.4; Maximum Effect % T/C (P-388 murine leukemia; [6]): > 573 % T/C; Average Weight Change (P-388 murine leukemia; [7]): +2.1; Maximum Effect % T/C (P-388 murine leukemia; [7]): 280 % T/C; % T/C (B16 melanoma; i.p., 100 mg/kg): > 177
CCP1(CC)(CC)Oc2cc([C@@H]3c4cc5c(cc4[C@@H](O[C@@H]4O[C@@H]6CO[C@@H](C)O[C@H]6[C@H](O)[C@H]4O)[C@H]4COC(=O)[C@H]34)OCO5)cc(OC)c2O1 [Example 1, ETOPOSIDE-3',4'-DIOXATRIETHYLPHOSPHORANE] | – | 47 µg/mL and 46 µg/mL | 64 µg/mL and 85 µg/mL | 56 µg/mL and 45 µg/mL | – | 108 µg/mL and 89 µg/mL | -0.7 | > 544 | – | – | activity against B16 melanoma (prolongation of survival) (B16 melanoma; B16 melanoma implanted subcutaneously, i.p. dosage): active; % T/C (B16 melanoma; i.p. dosage, 40 mg/kg): 145%
COc1cc([C@@H]2c3cc4c(cc3[C@@H](O[C@@H]3O[C@@H]5CO[C@@H](C)O[C@H]5[C@H](O)[C@H]3O)[C@H]3COC(=O)[C@H]23)OCO4)cc2c1OP(C)(CO)(CO)O2 [Example 2] | 21 µg/mL and 30 µg/mL | 9.8 µg/mL and 10.6 µg/mL | 74 µg/mL and 70 µg/mL | – | – | 74 µg/mL and 80 µg/mL | – | – | 76 µg/mL and 71 µg/mL | Greater effectiveness | Average Weight Change (P-388 murine leukemia; [9]): +2.6; Maximum Effect % T/C (P-388 murine leukemia; [9]): 305 % T/C
COc1cc([C@@H]2c3cc4c(cc3[C@@H](O[C@@H]3O[C@@H]5CO[C@@H](C)O[C@H]5[C@H](O)[C@H]3O)[C@H]3COC(=O)[C@H]23)OCO4)cc2c1OP(CCC#N)(CCC#N)(CCC#N)O2 [Example 3, Etoposide-3',4'-Dioxa-Tris-(2-Cyanoethyl)Phosphorane] | 20 µg/mL and 22 µg/mL | 15.6 µg/mL and 14.3 µg/mL | 105 µg/mL and 79 µg/mL | 35 µg/mL and 56 µg/mL | – | 64 µg/mL and 99 µg/mL | – | – | 54 µg/mL and 56 µg/mL | Greater effectiveness | Average Weight Change (P-388 murine leukemia; [10]): +3.2; Maximum Effect % T/C (P-388 murine leukemia; [10]): 285 % T/C
COc1cc([C@@H]2c3cc4c(cc3[C@@H](O[C@@H]3O[C@@H]5CO[C@@H](c6cccs6)O[C@H]5[C@H](O)[C@H]3O)[C@H]3COC(=O)[C@H]23)OCO4)cc(OC)c1O [Teniposide] | – | – | – | – | active | – | – | – | – | – | –
Etoposide-Bis-(2-Chloroethyl)Phosphate, Mixture of 3' and 4'Regioisomers [Example 4] | 13.1 µg/mL and 20.7 µg/mL | – | 84 µg/mL | 63 µg/mL and 82 µg/mL | – | 203 µg/mL and 168 µg/mL | +0.2 | 150 | > 125 µg/mL and 97 µg/mL | – | –
